From patent US12691143B2, “Method for treating cancer” (priority 2020, dated 2026)

Test system: KE1 cells (NER-deficient)
Experiment: Immunoblotting after irofulven treatment
Format: cell-based
Method: Cells were lysed with ice-cold RIPA buffer supplemented with protease and phosphatase inhibitors (Roche). Samples were then sonicated and protein concentrations were determined using the Bradford assay. Sample buffer (Bio-Rad) was added and samples were then denatured at 90° C. for 10 mins. Samples were then loaded in NuPAGE™ protein gels (Thermo Fisher Scientific) and run at 90V for 2-3 hours. The gels were then transferred to nitrocellulose membranes at 30V overnight. Membranes were blocked for 30 mins in 5% milk in TBS buffer. Sections of the membrane corresponding to the appropriate molecular weights were stained overnight in primary antibodies prepared in 1% milk in TBST: XPF (1:700, clone D3G8C rabbit mAB, Cell Signaling); cleaved caspase 3 (1:1000, clone D175, rabbit mAB, Cell Signaling); total and cleaved PARP (1:1000, rabbit mAB, Cell Signaling); phospho-H2AX Ser139 (1:1000, clone JBW301 mouse mAB, Millipore); β-tubulin (1:1000, mouse mAB, Santa Cruz Technologies); Rpb1 CTD (1:1000, clone 4H8 Mouse mAb, Cell Signaling). A Licor Odyssey Infrared Imaging System was used for signal detection using IRDYE-conjugated secondary antibodies (LI-COR Biosciences).
Cells were lysed with ice-cold RIPA buffer supplemented with protease and phosphatase inhibitors (Roche). Samples were then sonicated and protein concentrations were determined using the Bradford assay. […]

With `CC1=C(CO)C2=C(C)C3(CC3)[C@@](C)(O)C(=O)C2=C1` [irofulven] the “RNA polymerase level (immunoblot)” value (following irofulven treatment, KE1) was “time-dependent loss” and the “phospho-H2AX (γH2AX), cleaved PARP and cleaved caspase-3 (immunoblot)” value (irofulven-treated NER-deficient cells) was “accumulation”.
